Measured values: PMC9704104, “Towards safer anti-inflammatory therapy: synthesis of new thymol–pyrazole hybrids as dual COX-2/5-LOX inhibitors” (Journal of Enzyme Inhibition and Medicinal Chemistry, 2022)
Where “and” joins values, the source holds several entries; their conditions need not be identical. Equal values may be shown once. Entries after “also recorded” stand apart in the source; their conditions may differ.

Key:
COX-1 = target: T1, COX-1 (Ovis aries, UniProt P05979); test: In vitro COX-1 inhibitory assay (Cayman colorimetric COX (ovine) inhibitor screening assay kit); type: biochemical; settings: mean of three replicates ± SD
T1 construct: purchased Cayman chemicals 560131
T1 sequence (P05979 25-600): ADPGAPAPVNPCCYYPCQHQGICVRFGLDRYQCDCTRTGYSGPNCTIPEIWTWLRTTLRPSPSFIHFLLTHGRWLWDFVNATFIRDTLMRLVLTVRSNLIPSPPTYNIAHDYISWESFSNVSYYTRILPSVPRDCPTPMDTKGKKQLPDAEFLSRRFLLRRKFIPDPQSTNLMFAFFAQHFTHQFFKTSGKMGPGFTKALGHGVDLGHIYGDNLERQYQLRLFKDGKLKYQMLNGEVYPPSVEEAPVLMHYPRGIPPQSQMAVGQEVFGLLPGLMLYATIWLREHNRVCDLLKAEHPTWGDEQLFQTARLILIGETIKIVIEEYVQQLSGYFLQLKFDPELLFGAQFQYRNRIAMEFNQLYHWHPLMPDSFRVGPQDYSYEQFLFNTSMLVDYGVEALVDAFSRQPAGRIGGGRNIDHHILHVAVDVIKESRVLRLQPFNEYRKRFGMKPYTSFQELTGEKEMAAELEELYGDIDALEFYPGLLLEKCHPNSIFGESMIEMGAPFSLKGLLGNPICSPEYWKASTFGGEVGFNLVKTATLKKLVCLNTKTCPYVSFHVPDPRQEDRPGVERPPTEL
Method: (Page: S20, Supplementary file).
Anti-inflammatory activity
In vitro COX-1 and COX-2 inhibitory assay […]
supplied by Cayman chemicals, Ann Arbor, MI, USA according to reported method 1. The colorimetric COX inhibitor screening assay utilizes the peroxidase component of cyclooxygenase. The peroxidase activity was assayed calorimetrically by monitoring the appearance of oxidized N,N,N',N'-tetramethyl-1,4-phenylenediamine (TMPD) at 590nm. The appearance of reagent was carried out following the instructions […]
The half- maximal inhibitor concentrations (IC50µM) were determined and the selectivity index (SI) values were calculated as IC50 (COX-1)/IC50 (COX-2).
1) Background wells- 160 µL of assay buffer and 10 µL of heme were added to background wells.
2) The 100% Initial activity wells- 150 µL of assay buffer, 10 µL of heme and 10 µL of enzyme (COX-1 or COX-2) were added.
3) Inhibitor well- 150 µL of assay buffer, 10 µL of heme and 10 µL of enzyme were added.
4) 10 µL of inhibitor (3 concentrations) in DMSO was added to the inhibitor wells to yield a final […]
5) 10 µL of solvent (DMSO) was added to the 100% Initial activity wells and background wells.
7) 20 µL of colorimetric substrate solution (TMPD) was added to all wells.
8) 20 µL of arachidonic acid was added to all wells to yield a final concentration of 100 µM.
10) The absorbance was measured at 590 nm using a plate reader.
The calculations were carried out in the following manner:
1) The average absorbance of all samples was determined.
2) The absorbance of background wells was subtracted from absorbance of the 100% Initial activity […]
3) Percent inhibition = (100% Initial activity – Inhibitor wells/ 100% Initial activity)∗ 100 […]
Place the 96-well plate on a shaker for at least five minutes. […]

gastric mucosa = test: In vivo gastric ulcerogenic activity (gross examination of gastric mucosa); settings: fasted rats, 60 mg/kg orally, six hours after treatment, 60 mg/kg
Method: Compounds were evaluated for acute gastric ulcerogenic effect in adult female Wistar rats. Gross examination was performed for any evidence of hyperaemia, haemorrhage, definite haemorrhagic erosion, or ulcer according to reported procedures[49]^,[51]
Compounds were evaluated for acute gastric ulcerogenic effect in adult female Wistar rats. Rats (150–250 g)
were divided into groups of six rats each and test compounds, references or DMSO as control were
administered orally at a dose of 60 mg/kg body weight (three times the previously used dose). Six hours after
the treatment they were sacrificed under deep ether anesthesia and their stomachs were removed and opened
through greater curvature, washed under running water and fixed in saline solution. Gross examination was
performed for any evidence of hyperemia, hemorrhage, definite hemorrhagic erosion or ulcer 6, 7 (Approved
The degree of ulcerogenicity was determined by viewing the gastric epithelial ulceration using a 5x
magnifying lens and rated by ulcer score.
Ulcer score was used to grade the incidence and severity of the lesions such as:
1) Shedding of epithelium—10
2) Petechial and frank hemorrhages—20
4) More than two ulcers—40

5-LOX = test: In vitro 5-LOX inhibitory assay (Abnova 5-LOX inhibitor screening assay kit); type: biochemical
Excerpt: The newly synthesised compounds were screened for their ability to inhibit 5-LOX enzymes. […] (Page: S21, Supplementary file). […]
In vitro LOX inhibitory assay
Inhibitor Screening Assay Kit detects and measures the hydroperoxides produced in the lipoxygenation reaction using a purified LOX. The detection reaction is equally sensitive to hydroperoxides at various positions within the fatty acid and will work with fatty acids of any carbon length. It is thus a general detection method for 5-LOX and can be used to screen libraries of compounds for those which inhibit 5 -LOX enzymes.
1) Blank Wells- add 100 µL of assay buffer to at least two wells.
2) Positive Control Wells- Lipoxygenase (15-LO standard) add 90 µL 15-LO and 10 µL of assay buffer […]
3) 100% Initial Activity Wells- add 90 µL 15-LO and 10 µL of solvent (DMSO) (the same solvent to dissolve the inhibitor) to two wells. The 100% initial activity wells should result in approximately 10 […]
4) Inhibitor Wells- add 90 µL of sample and I10 µL of inhibitor to two wells.
5) Initiate the reaction by adding 10 µL of substrate (either arachidonic acid or linoleic acid) to all the wells. Place the 96-well plate on a shaker for at least five minutes.
6) Add 100 µL of chromogen to each well to stop enzyme catalysis and develop the reaction. Cover with a plate cover and place the 96-well plate on a shaker for at least five minutes.
7) Remove the cover and read the absorbance at 490-500 nm using a plate reader.
Inhibitors were dissolved in DMSO. The inhibitors were added to the assay in a final volume of 10 µL before initiating with substrate. Three concentrations were prepared (25, 50 and 100 µM) to determine the concentration produced 50% enzyme inhibition.
2) The absorbance of blank wells was subtracted from absorbance of the 100% Initial activity and the […]

[1] = system: formalin-induced rat paw oedema; test: Formalin-induced paw oedema test (acute inflammation model); type: in vivo; settings: for inhibition in vivo at 5 mg/kg: Rattus norvegicus, po, read-out: % Inhibition of oedema volume; for % Relative potency (4h) diclofenac, Mean ± SD / % Relative potency (4h) diclofenac: relative to % inhibition of diclofenac at 4 h
Method: Animals Adult female albino rats weighing 150-250 g were used (Experimental Animal Centre in Alexandria University). All animals accessed to food and water ad libitum and were housed in 12 h dark/light cycle in a controlled condition at 23-250C. They were allowed to acclimatize for 1 week prior to experimentation. Procedures involving animals and their care were conducted in conformity with the Guide for the Care and Use of Laboratory Animals published by US National Institute of Health4 (NIH publication No. 83-23, revised) and following the ethical guidelines of Alexandria University on laboratory animals. In all tests, adequate considerations were adopted to reduce pain or discomfort of animals (Approved by AlexU-IACUC) 3. […]
Formalin-induced paw edema test (acute inflammation model):
A solution of freshly prepared formalin 5% was used as a phlogistic agent. A mark was made on the lateral malleolus of the rats’ paws delineating the injection sites. The initial volume of paw was measured by means of digital calibrated Vernier caliper .
After 45 minutes, 40 μl formalin were injected subcutaneously into the sub plantar tissue of the right hind paw of all groups under light ether anesthesia . An equal volume of saline was injected into the left hind paw and served as internal control for the degree of inflammation in the right hind paw. 5, 6 The volume of paw was measured in different treatment groups, 4 h following the formalin injection and the amount of increase in paw volume (edema volume) was calculated by subtracting the volumes before and 4 h after the injection of formalin. Edema was expressed as an increase in the volume of paw, and the percentage of edema inhibition (or percent protection against inflammation) for each rat and each group was calculated according to the following equation: […]
Where Vt is the mean volume of edema at specific time interval (4 h) and Vo is the mean volume of edema […]
Relative potency of the tested compounds was expressed as % inhibition of edema for the tested compounds

[2] = 4 h, individual rats 1-3, 5 mg/kg orally
[3] = relative to % inhibition of celecoxib at 4 h, individual rats 1-3

Row | SMILES | IC50 (COX-1) | melting point | Gross appearance of gastric mucosa (ulcerogenic potential) (gastric mucosa) | IC50 (5-LOX) | % inhibition of paw oedema compared with reference drugs (in words) ([1]; 4 h, 5 mg/kg orally, comparison with celecoxib or diclofenac sodium) | inhibition in vivo at 5 mg/kg [1, 2] | % Relative potency (4h) celecoxib [1, 3] | % Relative potency (4h) diclofenac, Mean ± SD ([1]; group mean ± SD) | % Relative potency (4h) diclofenac ([1]; individual rats 1-3) | Volume of oedema (ml) 0 ([1]; time 0, individual rats 1-3, 5 mg/kg orally, 5 mg/kg) | Volume of oedema (ml) 4h ([1]; 4 h after formalin, individual rats 1-3, 5 mg/kg orally, 5 mg/kg) | % Relative potency (4h) celecoxib, Mean ± SD ([1]; relative to % inhibition of celecoxib at 4 h, group mean ± SD)
1 | COc1ccc(-c2cc(C(=O)NN=Cc3c(C)ccc(C(C)C)c3O)nn2-c2ccc(Cl)cc2)cc1 [Compound 8i, 5-(4-Methoxyphenyl)-1-(4-chlorophenyl)-N'-(2-hydroxy-3-isopropyl-6-methylbenzylidene)-1H-pyrazole-3-carbohydrazide] | 12.6 ± 0.46 µM | 218 to 220 °C | variable degrees of hyperaemia; also recorded: Hyperemia without gross ulceration | 2.78 ± 0.016 µM | double % inhibition exhibited by Celecoxib | 67.6% | 192.30% and 183.30% and 210.70% | 135.4 ± 6.60% | 142.90% and 130.50% and 132.80% | 5.30 mL | – | –
2 | COc1ccc(-c2cc(C(=O)NN=Cc3c(C)ccc(C(C)C)c3O)[nH]n2)cc1 [Compound 4c, N'-(2-Hydroxy-3-isopropyl-6-methylbenzylidene)-3–(4-methoxyphenyl)-1H-pyrazole-5-carbohydrazide] | 10.22 ± 0.046 µM | 246 to 248 °C | variable degrees of hyperaemia; also recorded: Hyperemia without gross ulceration | 2.91 ± 0.068 µM | – | 66.2% | 188.50% and 151.20% and 157.30% | 115.6 ± 21.54% | 140.0% and 107.60% and 99.20% | – | 6.20 mL | 165.7 ± 20.01%
